Laboratory results as given in ChEMBL document CHEMBL1949642 (Bioorg Med Chem Lett, 2012).
Values after ≈ are worked out from the molar mass of the structure shown. Active and inactive are the calls of the source. The rule behind the calls is not given here.

Legend:
[1] = Intrinsic clearance in human liver microsomes; conditions: liver microsomes
[2] = target: T1, C-C chemokine receptor type 5 (Homo sapiens, UniProt P51681); test: Antagonist activity at CCR5 in human whole blood assessed as inhibition of MIP-1beta-induced receptor internalization; type: functional, tissue-based
Target sequence in this assay (P51681 whole entry, looked up): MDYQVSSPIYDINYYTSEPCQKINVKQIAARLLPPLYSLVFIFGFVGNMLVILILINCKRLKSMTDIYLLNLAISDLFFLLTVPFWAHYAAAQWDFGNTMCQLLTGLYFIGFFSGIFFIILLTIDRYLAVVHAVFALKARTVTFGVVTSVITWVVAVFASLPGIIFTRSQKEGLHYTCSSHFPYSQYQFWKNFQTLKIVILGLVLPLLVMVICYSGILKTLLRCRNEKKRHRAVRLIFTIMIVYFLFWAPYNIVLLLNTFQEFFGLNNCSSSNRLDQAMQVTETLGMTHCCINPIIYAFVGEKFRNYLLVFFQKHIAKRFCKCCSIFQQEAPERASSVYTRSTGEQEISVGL

[3] = Lipophilicity, log D of the compound at pH 7.4; conditions: buffer
[4] = target: Voltage-gated inwardly rectifying potassium channel KCNH2 (Homo sapiens, UniProt Q12809); test: Displacement of 3,7-Bis[2-(4-nitro[3,5-3H]phenyl)ethyl]-3,7-diazabicyclo[3.3.1]nonane from human ERG expressed in HEK cells after 3 hrs
[5] = target: T1, C-C chemokine receptor type 5; test: Displacement of [125I]MIP-1alpha from human recombinant CCR5 expressed in CHO cells; type: cell-based
Target sequence in this assay (P51681 whole entry): as the sequence (P51681 whole entry, looked up) above

[6] = Oral bioavailability in rat at 2 to 5 mg/kg; type: ADME, organism-based; conditions: in vivo
[7] = Volume of distribution at steady state in male dog at 1 to 2 mg/kg, iv; type: ADME, organism-based, Canis lupus familiaris; parameters: dose 1-2 mg/kg, route intravenous; conditions: in vivo, read-out: Vdss
[8] = Plasma protein binding in human; type: ADME, cell-free; conditions: read-out: PPB (converted)
Cytochrome P450 2C19 = Cytochrome P450 2C19 (Homo sapiens, UniProt P33261); test: Inhibition of CYP2C19; type: ADME
Cytochrome P450 2C9 = Cytochrome P450 2C9 (Homo sapiens, UniProt P11712); test: Inhibition of CYP2C9; type: ADME
[9] = Apparent permeability from apical to basal side of human Caco2 cells at 10 uM; type: ADME, cell-based; conditions: Caco-2
[10] = Clearance in male dog at 1 to 2 mg/kg, iv; type: ADME, organism-based, Canis lupus familiaris; parameters: dose 1-2 mg/kg, route intravenous; conditions: in vivo
[11] = Volume of distribution at steady state in rat at 1 to 2 mg/kg, iv; type: ADME, organism-based; parameters: dose 1-2 mg/kg, route intravenous; conditions: in vivo, read-out: Vdss
[12] = Aqueous solubility of the compound at pH 7.4; type: physicochemical; conditions: buffer
Cytochrome P450 2D6 = Cytochrome P450 2D6 (Homo sapiens, UniProt P10635); test: Inhibition of CYP2D6; type: ADME
[13] = Dissociation constant, pKa of the compound; type: physicochemical
[14] = Apparent permeability from apical to basal side of human Caco2 cells at 100 uM; type: ADME, cell-based; conditions: Caco-2
[15] = Volume of distribution at steady state in female dog at 1 to 2 mg/kg, iv; type: ADME, organism-based, Canis lupus familiaris; parameters: dose 1-2 mg/kg, route intravenous; conditions: in vivo, read-out: Vdss
[16] = Clearance in female dog at 1 to 2 mg/kg, iv; type: ADME, organism-based, Canis lupus familiaris; parameters: dose 1-2 mg/kg, route intravenous; conditions: in vivo
[17] = Half life in male dog at 1 to 2 mg/kg, iv; type: ADME, organism-based, Canis lupus familiaris; parameters: dose 1-2 mg/kg, route intravenous; conditions: in vivo
[18] = Apparent permeability from basal to apical side of human Caco2 cells at 100 uM; type: ADME, cell-based; conditions: Caco-2
[19] = Oral bioavailability in male dog at 2 to 5 mg/kg; type: ADME, organism-based, Canis lupus familiaris; conditions: in vivo
[20] = Half life in female dog at 1 to 2 mg/kg, iv; type: ADME, organism-based, Canis lupus familiaris; parameters: dose 1-2 mg/kg, route intravenous; conditions: in vivo
[21] = Half life in rat at 1 to 2 mg/kg, iv; type: ADME, organism-based; parameters: dose 1-2 mg/kg, route intravenous; conditions: in vivo
[22] = Clearance in rat at 1 to 2 mg/kg, iv; type: ADME, organism-based; parameters: dose 1-2 mg/kg, route intravenous; conditions: in vivo
Homo sapiens = species on record: Homo sapiens; test: Antiarthritis activity in rheumatoid arthritis patient at 150 mg; type: functional, organism-based
Cytochrome P450 1A1 = target: T2, Cytochrome P450 1A1 (Homo sapiens, UniProt P04798); test: Inhibition of CYP1A1; type: ADME
T2 sequence (P04798 whole entry): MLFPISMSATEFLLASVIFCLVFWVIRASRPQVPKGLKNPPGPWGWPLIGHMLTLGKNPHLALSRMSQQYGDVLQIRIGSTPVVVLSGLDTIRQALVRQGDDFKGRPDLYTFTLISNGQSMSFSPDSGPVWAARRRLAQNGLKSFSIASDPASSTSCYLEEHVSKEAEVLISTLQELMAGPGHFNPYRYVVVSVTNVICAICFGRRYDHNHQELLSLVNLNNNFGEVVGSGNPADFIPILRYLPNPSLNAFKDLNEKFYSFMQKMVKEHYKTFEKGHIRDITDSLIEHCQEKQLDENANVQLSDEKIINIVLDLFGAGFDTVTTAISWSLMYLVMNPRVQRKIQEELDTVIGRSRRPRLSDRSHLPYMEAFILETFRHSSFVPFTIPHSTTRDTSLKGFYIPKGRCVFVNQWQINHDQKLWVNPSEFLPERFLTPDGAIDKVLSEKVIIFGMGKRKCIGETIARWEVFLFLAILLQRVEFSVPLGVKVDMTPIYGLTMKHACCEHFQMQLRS

Cytochrome P450 3A4 = Cytochrome P450 3A4 (Homo sapiens, UniProt P08684); test: Inhibition of CYP3A4; type: ADME
[23] = Oral bioavailability in female dog at 2 to 5 mg/kg; type: ADME, organism-based, Canis lupus familiaris; conditions: in vivo
[24] = Fraction unbound in human plasma; type: ADME, cell-free
[25] = Apparent permeability from basal to apical side of human Caco2 cells at 10 uM; type: ADME, cell-based; conditions: Caco-2

Sequence of Voltage-gated inwardly rectifying potassium channel KCNH2 (Q12809 whole entry): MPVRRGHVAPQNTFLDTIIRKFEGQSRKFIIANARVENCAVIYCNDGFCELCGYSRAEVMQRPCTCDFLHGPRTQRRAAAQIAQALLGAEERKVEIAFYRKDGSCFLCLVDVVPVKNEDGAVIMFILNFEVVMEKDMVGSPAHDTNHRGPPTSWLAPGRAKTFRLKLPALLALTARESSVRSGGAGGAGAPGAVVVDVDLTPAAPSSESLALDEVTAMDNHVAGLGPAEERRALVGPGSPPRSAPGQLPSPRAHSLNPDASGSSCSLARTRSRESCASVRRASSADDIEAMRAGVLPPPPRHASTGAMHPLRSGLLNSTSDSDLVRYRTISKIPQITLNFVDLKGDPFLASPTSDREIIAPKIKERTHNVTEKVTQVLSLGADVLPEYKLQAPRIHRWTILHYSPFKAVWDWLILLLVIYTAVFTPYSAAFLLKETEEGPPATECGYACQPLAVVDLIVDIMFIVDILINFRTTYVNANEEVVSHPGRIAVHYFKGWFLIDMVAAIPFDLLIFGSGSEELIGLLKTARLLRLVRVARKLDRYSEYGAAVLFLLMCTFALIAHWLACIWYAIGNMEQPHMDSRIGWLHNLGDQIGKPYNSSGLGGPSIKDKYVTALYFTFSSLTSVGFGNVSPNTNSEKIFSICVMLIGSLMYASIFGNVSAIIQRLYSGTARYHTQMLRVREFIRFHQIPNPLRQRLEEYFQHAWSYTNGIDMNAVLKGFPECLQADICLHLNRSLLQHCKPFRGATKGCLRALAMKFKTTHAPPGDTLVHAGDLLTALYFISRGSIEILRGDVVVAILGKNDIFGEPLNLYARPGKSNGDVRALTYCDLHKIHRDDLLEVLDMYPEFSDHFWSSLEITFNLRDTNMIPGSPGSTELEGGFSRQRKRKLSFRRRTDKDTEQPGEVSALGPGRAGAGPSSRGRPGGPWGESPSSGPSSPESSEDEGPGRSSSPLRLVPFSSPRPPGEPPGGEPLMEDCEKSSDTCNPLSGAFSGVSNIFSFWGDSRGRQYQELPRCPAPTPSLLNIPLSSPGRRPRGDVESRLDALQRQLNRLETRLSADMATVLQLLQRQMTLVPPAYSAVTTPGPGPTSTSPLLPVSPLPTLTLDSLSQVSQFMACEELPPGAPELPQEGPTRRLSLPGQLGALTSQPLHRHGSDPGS
Sequence of Cytochrome P450 3A4 (P08684 whole entry): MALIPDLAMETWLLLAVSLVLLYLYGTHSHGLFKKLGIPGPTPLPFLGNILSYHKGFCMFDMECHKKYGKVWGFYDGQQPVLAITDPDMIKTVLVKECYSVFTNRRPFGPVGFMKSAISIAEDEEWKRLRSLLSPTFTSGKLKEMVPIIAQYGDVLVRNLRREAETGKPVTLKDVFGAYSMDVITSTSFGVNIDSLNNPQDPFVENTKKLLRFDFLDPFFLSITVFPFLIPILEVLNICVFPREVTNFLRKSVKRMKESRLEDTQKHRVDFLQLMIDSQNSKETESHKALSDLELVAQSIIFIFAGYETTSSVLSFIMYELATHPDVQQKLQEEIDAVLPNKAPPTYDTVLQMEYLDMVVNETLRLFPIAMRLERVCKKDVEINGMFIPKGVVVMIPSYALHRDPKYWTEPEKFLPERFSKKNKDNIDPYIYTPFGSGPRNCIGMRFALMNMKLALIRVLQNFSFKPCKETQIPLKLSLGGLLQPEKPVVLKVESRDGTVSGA
Sequence of Cytochrome P450 2C9 (P11712 whole entry): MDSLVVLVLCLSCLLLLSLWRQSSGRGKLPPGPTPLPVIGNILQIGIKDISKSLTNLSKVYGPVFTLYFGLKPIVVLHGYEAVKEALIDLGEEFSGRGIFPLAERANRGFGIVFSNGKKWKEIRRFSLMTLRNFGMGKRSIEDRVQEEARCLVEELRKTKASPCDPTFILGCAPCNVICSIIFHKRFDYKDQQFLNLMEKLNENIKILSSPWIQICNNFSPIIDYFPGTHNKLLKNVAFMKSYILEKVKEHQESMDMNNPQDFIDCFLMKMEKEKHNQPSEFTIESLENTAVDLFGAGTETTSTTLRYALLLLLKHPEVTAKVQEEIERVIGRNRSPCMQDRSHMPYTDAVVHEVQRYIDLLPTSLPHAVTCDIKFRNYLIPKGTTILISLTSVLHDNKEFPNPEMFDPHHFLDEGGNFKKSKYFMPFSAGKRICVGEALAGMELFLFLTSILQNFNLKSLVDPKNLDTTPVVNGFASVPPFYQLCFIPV
Sequence of Cytochrome P450 2D6 (P10635 whole entry): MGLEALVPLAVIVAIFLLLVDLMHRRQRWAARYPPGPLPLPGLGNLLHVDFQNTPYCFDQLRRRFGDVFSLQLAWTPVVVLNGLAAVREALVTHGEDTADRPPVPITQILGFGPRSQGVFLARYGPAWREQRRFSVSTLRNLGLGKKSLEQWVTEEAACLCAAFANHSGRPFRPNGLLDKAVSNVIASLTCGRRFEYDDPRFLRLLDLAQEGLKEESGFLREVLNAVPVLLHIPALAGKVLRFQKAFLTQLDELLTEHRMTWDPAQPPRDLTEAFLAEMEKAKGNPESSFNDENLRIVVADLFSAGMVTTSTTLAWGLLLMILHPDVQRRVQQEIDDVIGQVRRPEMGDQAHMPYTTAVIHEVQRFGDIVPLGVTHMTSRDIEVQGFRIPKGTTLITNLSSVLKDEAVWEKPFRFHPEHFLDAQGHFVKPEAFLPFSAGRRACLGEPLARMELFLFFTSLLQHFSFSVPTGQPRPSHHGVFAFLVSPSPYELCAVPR
Sequence of Cytochrome P450 2C19 (P33261 whole entry): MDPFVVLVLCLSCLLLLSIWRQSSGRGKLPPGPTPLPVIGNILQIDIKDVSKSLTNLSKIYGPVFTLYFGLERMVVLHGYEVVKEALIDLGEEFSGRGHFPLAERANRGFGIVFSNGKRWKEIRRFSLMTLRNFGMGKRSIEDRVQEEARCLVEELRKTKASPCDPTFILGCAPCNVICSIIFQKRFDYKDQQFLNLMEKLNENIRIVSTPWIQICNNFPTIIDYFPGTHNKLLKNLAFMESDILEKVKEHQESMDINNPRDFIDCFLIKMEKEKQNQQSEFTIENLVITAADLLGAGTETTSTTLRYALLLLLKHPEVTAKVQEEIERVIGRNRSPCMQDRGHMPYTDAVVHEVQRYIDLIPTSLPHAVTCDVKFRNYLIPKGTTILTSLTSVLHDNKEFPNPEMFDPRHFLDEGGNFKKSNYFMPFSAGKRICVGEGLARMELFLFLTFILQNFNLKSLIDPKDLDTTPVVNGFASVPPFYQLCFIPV

## CCN(C(=O)Cc1ccc(S(C)(=O)=O)cc1)C1CCN(CC[C@H](c2ccc(S(C)(=O)=O)cc2)c2cc(F)cc(F)c2)CC1
[1]
  microsomal CLint: 8 µL/min/mg
[2]
  A2: 1.1 nM

## CCN(C(=O)Cc1ccc(S(C)(=O)=O)cc1)C1CCN(CCC(c2ccccc2)N2CCN(C)CC2)CC1 (racemic)
[3]
  logD: 0.9

## CCN(C(=O)Cc1ccc(S(C)(=O)=O)cc1)C1CCN(CCC(c2ccccc2)N2CCN(c3ccccc3)CC2)CC1 (racemic)
[4]
  IC50: 13000 nM
[5]
  IC50: 5 nM
[3]
  logD: 2.7
[1]
  microsomal CLint: 26 µL/min/mg

## CCN(C(=O)Cc1ccc(S(C)(=O)=O)cc1)C1CCN(CCC(c2ccccc2)N2CCN(c3cccc(F)c3)CC2)CC1 (racemic)
[4]
  IC50: 3200 nM
[5]
  IC50: 3.1 nM
[3]
  logD: 3.2
[1]
  microsomal CLint: 22 µL/min/mg

## CCN(C(=O)Cc1ccc(S(C)(=O)=O)cc1)C1CCN(CCC(c2ccccc2)N2CCN(C(C)=O)CC2)CC1 (racemic)
[5]
  IC50: 229 nM
[3]
  logD: 0.9

## CCN(C(=O)Cc1ccc(S(C)(=O)=O)cc1)C1CCN(CCC(c2ccccc2)N2CCN(S(C)(=O)=O)CC2)CC1 (racemic)
[5]
  IC50: 39 nM
[3]
  logD: 0.8
[1]
  microsomal CLint: < 3 µL/min/mg

## CCN(C(=O)Cc1ccc(S(C)(=O)=O)cc1)C1CCN(CCC(c2ccccc2)N2CCN(S(=O)(=O)CC)CC2)CC1 (racemic)
[5]
  IC50: 15 nM
[3]
  logD: 1
[1]
  microsomal CLint: 52 µL/min/mg

## CCN(C(=O)Cc1ccc(S(C)(=O)=O)cc1)C1CCN(CCC(c2ccccc2)N2CCC(C)CC2)CC1 (racemic)
[5]
  IC50: 339 nM
[3]
  logD: 2

## CCN(C(=O)Cc1ccc(S(C)(=O)=O)cc1)C1CCN(CCC(c2ccccc2)N2CCC(Cc3ccccc3)CC2)CC1 (racemic)
[5]
  IC50: 162 nM
[3]
  logD: 3.7

## CCN(C(=O)Cc1ccc(S(C)(=O)=O)cc1)C1CCN(CCC(c2ccccc2)N2CCC(C(C)=O)CC2)CC1 (racemic)
[5]
  IC50: 83 nM
[3]
  logD: 0.9
[1]
  microsomal CLint: 21 µL/min/mg

## CCN(C(=O)Cc1ccc(S(C)(=O)=O)cc1)C1CCN(CCC(c2ccccc2)C2CCN(C)CC2)CC1 (racemic)
[5]
  IC50: 126 nM
[3]
  logD: 1

## CCN(C(=O)Cc1ccc(S(C)(=O)=O)cc1)C1CCN(CCC(c2ccccc2)C2CCN(Cc3ccccc3)CC2)CC1 (racemic)
[5]
  IC50: 8.9 nM
[1]
  microsomal CLint: > 150 µL/min/mg

## CCN(C(=O)Cc1ccc(S(C)(=O)=O)cc1)C1CCN(CCC(c2ccccc2)C2CCN(C(C)=O)CC2)CC1 (racemic)
[5]
  IC50: 37 nM
[3]
  logD: 1.4

## CCN(C(=O)Cc1ccc(S(C)(=O)=O)cc1)C1CCN(CCC(c2ccccc2)C2CCN(S(=O)(=O)CC)CC2)CC1 (racemic)
[5]
  IC50: 2.4 nM
[3]
  logD: 1.6
[1]
  microsomal CLint: 61 µL/min/mg

## CCN(C(=O)Cc1ccc(S(C)(=O)=O)cc1)C1CCN(CC[C@@H](c2cc(F)cc(F)c2)C2CCN(S(C)(=O)=O)CC2)CC1 [AZD5672]
[5]
  IC50: 0.26 nM
[6]
  bioavailability: 41%
[7]
  Vd: 4.5 L/kg
[8]
  fraction unbound: 0.08
Cytochrome P450 2C19
  IC50: > 50000 nM
Cytochrome P450 2C9
  IC50: > 50000 nM
[9]
  Papp A→B at 10 µM: 0.7 ×10⁻⁶ cm/s
[10]
  clearance: 15 mL/min/kg
[3]
  logD: 1.5
[11]
  Vd: 5 L/kg
[12]
  solubility: 2700 µM (≈ 1730 µg/mL)
Cytochrome P450 2D6
  IC50: 23000 nM
[13]
  pKa: 8.4
[14]
  Papp A→B at 100 µM: 1.4 ×10⁻⁶ cm/s
[15]
  Vd: 5.8 L/kg
[16]
  clearance: 22 mL/min/kg
[17]
  half-life: 3.9 h
[1]
  microsomal CLint: 18 µL/min/mg
[18]
  Papp B→A at 100 µM: 11 ×10⁻⁶ cm/s
[19]
  bioavailability: 46%
[20]
  half-life: 3.8 h
[21]
  half-life: 2.1 h
[2]
  A2: 0.76 nM
[22]
  clearance: 38 mL/min/kg
Homo sapiens
  Activity: inactive
Cytochrome P450 1A1
  IC50: > 50000 nM
Cytochrome P450 3A4
  IC50: 9000 nM
[23]
  bioavailability: 51%
[24]
  fraction unbound: 0.08
[25]
  Papp B→A at 10 µM: 9.2 ×10⁻⁶ cm/s
